Measurements published in patent publication US12187721B2, “Protein tyrosine phosphatase inhibitors” (Array BioPharma Inc., priority 2018, dated 2025).
Where a name gives a salt, the structure may show the parent alone.

What follows are compounds tested against T1, full-length SHP2 (His6-tagged SHP2(2-527)) (Homo sapiens, UniProt Q06124) (assay: SHP2 Enzymatic Assay (fluorescence intensity kinetic assay, DiFMUP hydrolysis)). Details: not given.
T1 construct: His6-tagged SHP2(2-527); His6; made in house; host or cells: E. coli
T1 sequence (Q06124 2-527): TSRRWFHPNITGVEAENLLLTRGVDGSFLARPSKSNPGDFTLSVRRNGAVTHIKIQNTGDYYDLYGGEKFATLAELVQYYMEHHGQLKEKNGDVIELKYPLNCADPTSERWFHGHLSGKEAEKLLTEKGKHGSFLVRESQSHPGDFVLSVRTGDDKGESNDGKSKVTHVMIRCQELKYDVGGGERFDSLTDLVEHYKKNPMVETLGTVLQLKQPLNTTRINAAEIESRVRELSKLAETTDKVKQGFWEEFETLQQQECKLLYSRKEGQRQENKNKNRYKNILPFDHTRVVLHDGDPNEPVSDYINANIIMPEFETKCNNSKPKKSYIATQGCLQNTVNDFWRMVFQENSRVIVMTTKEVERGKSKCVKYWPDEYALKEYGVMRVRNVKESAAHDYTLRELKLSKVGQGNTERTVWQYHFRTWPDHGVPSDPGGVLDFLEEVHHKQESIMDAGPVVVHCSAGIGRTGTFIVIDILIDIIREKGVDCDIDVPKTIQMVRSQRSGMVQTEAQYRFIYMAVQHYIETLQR
Format: biochemical
How it was run: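 1 nM His6-SHP2(2-527), activated by 1 μM bis-phosphopeptide, hydrolysed 50 μM DiFMUP in 25 mM HEPES pH 7.4 with 1 mM DTT, 50 mM KCl and 2% DMSO. DiFMU fluorescence (Ex 355/Em 460 nm) was read kinetically for 15 min at ambient temperature.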

Row | SMILES | IC50 [nM]
1 | C[C@@H]1OCC2(CCN(c3cnc4nc(Sc5ccnc(N6CC[C@@H](O)C6)c5Cl)ccc4n3)CC2)[C@@H]1N [Example 107, (R)-1-(4-((2-((3S,4S)-4-amino-3-methyl-2-oxa-8-azaspiro[4.5]decan-8-yl)pyrido[2,3-b]pyrazin-6-yl)thio)-3-chloropyridin-2-yl)pyrrolidin-3-ol] | 120
2 | C[Si]1(CN)CCN(c2cnc3nc(Sc4ccnc(N)c4Cl)ccc3n2)CC1 [Example 109, 4-((2-(4-(Aminomethyl)-4-methyl-1,4-azasilinan-1-yl)pyrido[2,3-b]pyrazin-6-yl)thio)-3-chloropyridin-2-amine] | 27
3 | N[C@@H]1c2ccccc2CC12CCN(c1cnc3nc(Sc4ccnc(NCCO)c4Cl)ccc3n1)CC2 [Example 110, (S)-2-((4-((2-(1-amino-1,3-dihydrospiro[indene-2,4′-piperidin]-1′-yl)pyrido[2,3-b]pyrazin-6-yl)thio)-3-chloropyridin-2-yl)amino)ethan-1-ol] | 44
4 | N#Cc1ccc2c(c1)[C@H](N)C1(CCN(c3cnc4nc(Sc5ccnc(N)c5Cl)ccc4n3)CC1)C2 [Example 111, (R)-1-amino-1′-(6-((2-amino-3-chloropyridin-4-yl)thio)pyrido[2,3-b]pyrazin-2-yl)-1,3-dihydrospiro[indene-2,4′-piperidine]-6-carbonitrile] | 34
5 | Cc1ccc2c(n1)CC1(CCN(c3cnc4nc(Sc5ccnc(N)c5Cl)ccc4n3)CC1)[C@H]2N [Example 113, (R)-1′-(6-((2-amino-3-chloropyridin-4-yl)thio)pyrido[2,3-b]pyrazin-2-yl)-2-methyl-5,7-dihydrospiro[cyclopenta[b]pyridine-6,4′-piperidin]-5-amine] | 53
6 | Nc1ncc(Sc2ccc3nc(N4CCC5(CC4)Cc4ccccc4[C@H]5N)cnc3n2)c(Cl)c1Cl [Example 119, (S)-1′-(6-((6-amino-4,5-dichloropyridin-3-yl)thio)pyrido[2,3-b]pyrazin-2-yl)-1,3-dihydrospiro[indene-2,4′-piperidin]-1-amine] | 39
7 | Cc1nc2nc(Sc3cccc(Cl)c3Cl)ccc2nc1N1CCC(C)(N)CC1 [Example 120, 1-(6-((2,3-dichlorophenyl)thio)-3-methylpyrido[2,3-b]pyrazin-2-yl)-4-methylpiperidin-4-amine] | 633
8 | C[C@@H]1C[C@H](N)CCN1c1cnc2nc(Sc3ccnc(N)c3Cl)ccc2n1 [Example 121, 4-((2-((2R,4R)-4-amino-2-methylpiperidin-1-yl)pyrido[2,3-h]pyrazin-6-yl)thio)-3-chloropyridin-2-amine] | 99
9 | C[C@@H]1C[C@@H](N)CCN1c1cnc2nc(Sc3ccnc(N)c3Cl)ccc2n1 [Example 122, 4-((2-((2R,4S)-4-amino-2-methylpiperidin-1-yl)pyrido[2,3-b]pyrazin-6-yl)thio)-3-chloropyridin-2-amine dihydrochloride] | 64
10 | N[C@@H]1c2ccccc2CC12CCN(c1cnc3nc(Oc4ccc(F)cc4)ccc3n1)CC2 [Example 123, (S)-1′-(6-(4-fluorophenoxy)pyrido[2,3-b]pyrazin-2-yl)-1,3-dihydrospiro[indene-2,4′-piperidin]-1-amine] | 21
11 | Nc1nccc(Sc2ccc3nc(N4CC5(Cc6ccccc6[C@H]5N)C4)cnc3n2)c1Cl [Example 124, (R)-1-(6-((2-amino-3-chloropyridin-4-yl)thio)pyrido[2,3-b]pyrazin-2-yl)-1′,3′-dihydrospiro[azetidine-3,2′-inden]-1′-amine] | 52
12 | Cc1cccc2c1CC1(CCN(c3cnc4nc(Sc5ccnc(N)c5Cl)ccc4n3)CC1)[C@@H]2N [Example 126, (S)-1′-(6-((2-amino-3-chloropyridin-4-yl)thio)pyrido[2,3-b]pyrazin-2-yl)-4-methyl-1,3-dihydrospiro[indene-2,4′-piperidin]-1-amine] | 30
13 | N[C@@H]1c2ccccc2CC12CCN(c1cnc3nc(Sc4cnc5ccc(Cl)cn45)ccc3n1)CC2 [Example 127, (S)-1′-(6-((6-chloroimidazo[1,2-a]pyridin-3-yl)thio)pyrido[2,3-b]pyrazin-2-yl)-1,3-dihydrospiro[indene-2,4′-piperidin]-1-amine] | 82
14 | Nc1nccc(Sc2ccc3nc(N4CCC(N)(CCO)CC4)cnc3n2)c1Cl [Example 128, 2-(4-amino-1-(6-((2-amino-3-chloropyridin-4-yl)thio)pyrido[2,3-b]pyrazin-2-yl)piperidin-4-yl)ethan-1-ol] | 100
15 | CC(C)(O)CC1(N)CCN(c2cnc3nc(Sc4ccnc(N)c4Cl)ccc3n2)CC1 [Example 129, 1-(4-amino-1-(6-((2-amino-3-chloropyridin-4-yl)thio)pyrido[2,3-b]pyrazin-2-yl)piperidin-4-yl)-2-methylpropan-2-ol] | 34
16 | CCC1(N)CCN(c2cnc3nc(Sc4ccnc(N)c4Cl)ccc3n2)CC1 [Example 130, 4-((2-(4-amino-4-ethylpiperidin-1-yl)pyrido[2,3-b]pyrazin-6-yl)thio)-3-chloropyridin-2-amine] | 96
17 | C[C@@H]1OCC2(CCN(c3cnc4nc(Sc5ccnc6[nH]cnc56)ccc4n3)CC2)[C@@H]1N [Example 131, (3S,4S)-8-(6-((3H-imidazo[4,5-b]pyridin-7-yl)thio)pyrido[2,3-b]pyrazin-2-yl)-3-methyl-2-oxa-8-azaspiro[4.5]decan-4-amine] | 419
18 | Nc1nccc(Sc2ccc3nc(N4CCC5(CC4)Oc4ccccc4[C@H]5N)cnc3n2)c1Cl [Example 132] | 31
19 | Nc1cc(Sc2ccc3nc(N4CCC5(CC4)Cc4ncccc4[C@H]5N)cnc3n2)c(Cl)cn1 [Example 133, (S)-1′-(6-((2-amino-5-chloropyridin-4-yl)thio)pyrido[2,3-b]pyrazin-2-yl)-5,7-dihydrospiro[cyclopenta[b]pyridine-6,4′-piperidin]-5-amine] | 92
20 | C[C@@H]1OCC2(CCN(c3cnc4nc(N5CCCc6ncccc65)ccc4n3)CC2)[C@@H]1N [Example 135, (3S,4S)-8-(6-(3,4-dihydro-1,5-naphthyridin-1(2H)-yl)pyrido[2,3-b]pyrazin-2-yl)-3-methyl-2-oxa-8-azaspiro[4.5]decan-4-amine] | 4030
21 | C[C@@H]1OCC2(CCN(c3cnc4nc(Sc5ccnc(N)c5C(F)(F)F)ccc4n3)CC2)[C@@H]1N [Example 136, (3S,4S)-8-(6-((2-amino-3-(trifluoromethyl)pyridin-4-yl)thio)pyrido[2,3-b]pyrazin-2-yl)-3-methyl-2-oxa-8-azaspiro[4.5]decan-4-amine] | 160
22 | CC(C)(C)OC(=O)N[C@H]1[C@@H]2C[C@H]1CN(c1cnc3nc(Sc4ccnc(N)c4Cl)ccc3n1)C2 [Example 138] | 574
23 | Cc1c[nH]c2nccc(Sc3ccc4nc(N5CCC6(CC5)CO[C@@H](C)[C@H]6N)cnc4n3)c12 [Example 139, (3S,4S)-3-methyl-8-(6-((3-methyl-1H-pyrrolo[2,3-b]pyridin-4-yl)thio)pyrido[2,3-b]pyrazin-2-yl)-2-oxa-8-azaspiro[4.5]decan-4-amine] | 93
24 | C[C@@H]1OCC2(CCN(c3cnc4nc(Sc5cc(N)nc6[nH]ccc56)ccc4n3)CC2)[C@@H]1N [Example 140, (3S,4S)-8-(6-((6-amino-1H-pyrrolo[2,3-b]pyridin-4-yl)thio)pyrido[2,3-b]pyrazin-2-yl)-3-methyl-2-oxa-8-azaspiro[4.5]decan-4-amine] | 75
25 | C[C@@H]1OCC2(CCN(c3cnc4nc(Sc5c(F)cnc6[nH]ccc56)ccc4n3)CC2)[C@@H]1N [Example 141, (3S,4S)-8-(6-((5-fluoro-1H-pyrrolo[2,3-b]pyridin-4-yl)thio)pyrido[2,3-b]pyrazin-2-yl)-3-methyl-2-oxa-8-azaspiro[4.5]decan-4-amine] | 74
26 | CC1CCN(c2cnc3nc(Sc4ccnc(N)c4Cl)ccc3n2)CC1 [Example 143, 3-chloro-4-((2-(4-methylpiperidin-1-yl)pyrido[2,3-b]pyrazin-6-yl)thio)pyridin-2-amine] | 1760
27 | C[C@@H]1OCC2(CCN(c3cnc4nc(Sc5cc(N)ncc5Cl)ccc4n3)CC2)[C@@H]1N [Example 144, (3S,4S)-8-(6-((2-amino-5-chloropyridin-4-yl)thio)pyrido[2,3-b]pyrazin-2-yl)-3-methyl-2-oxa-8-azaspiro[4,5]decan-4-amine] | 89
28 | CNc1nccc(Sc2ccc3nc(N4CCCC(C)(N)CC4)cnc3n2)c1Cl (stereo not drawn) [Example 146, 1-(6-((3-chloro-2-(methylamino)pyridin-4-yl)thio)pyrido[2,3-b]pyrazin-2-yl)-4-methylazepan-4-amine] | 89
29 | Cc1nccc(Sc2ccc3nc(N4CCCC(C)(N)CC4)cnc3n2)c1Cl (stereo not drawn) [Example 147, 1-(6-((3-chloro-2-methylpyridin-4-yl)thio)pyrido[2,3-b]pyrazin-2-yl)-4-methylazepan-4-amine] | 50

Same assay, conditions: full-length SHP2 with 1 μM activating peptide, 50 μM DiFMUP; single assay or mean of multiple assays; read-out: Biological Example 1 IC50

Row | SMILES | IC50 [nM]
30 | Cc1ccc2c(n1)CC1(CCN(c3cnc4nc(Sc5ccnc(N)c5Cl)ccc4n3)CC1)[C@@H]2N [Example 114, (S)-1′-(6-((2-amino-3-chloropyridin-4-yl)thio)pyrido[2,3-b]pyrazin-2-yl)-2-methyl-5,7-dihydrospiro[cyclopenta[b]pyridine-6,4′-piperidin]-5-amine] | 40
31 | COc1cnc2c(c1)[C@@H](N)C1(CCN(c3cnc4nc(Sc5ccnc(N)c5Cl)ccc4n3)CC1)C2 [Example 115, (S)-1′-(6-((2-amino-3-chloropyridin-4-yl)thio)pyrido[2,3-b]pyrazin-2-yl)-3-methoxy-5,7-dihydrospiro[cyclopenta[b]pyridine-6,4′-piperidin]-5-amine] | 60
32 | Nc1nccc(Sc2ccc3nc(N4C[C@H]5C[C@@H](C4)[C@H]5N)cnc3n2)c1Cl [Example 137] | 64
33 | Nc1nccc(Sc2ccc3nc(N4CCC5(CC4)Cc4cc(F)ccc4[C@H]5N)cnc3n2)c1Cl [Example 145, (S)-1′-(6-((2-amino-3-chloropyridin-4-yl)thio)pyrido[2,3-b]pyrazin-2-yl)-5-fluoro-1,3-dihydrospiro[indene-2,4′-piperidin]-1-amine] | 27
